According to patent US10435355B2, “Inhibitors of fatty acid amide hydrolase (FAAH) enzyme with improved oral bioavailability and their use as medicaments” (THE REGENTS OF THE UNIVERSITY OF CALIFORNIA, priority 2014, dated 2019):

Assay: Pharmacokinetic experiment (PO and IV) in cannulated rats
Format: in vivo, Sprague-Dawley rats
Settings: rat, plasma
Method: Pharmacokinetic Experiment and Analysis
Compounds were administered orally (PO) and intravenously (IV) to cannulated Sprague-Dawley rats at 10 and 3 mg/kg, respectively. Vehicle was: PEG400/Tween 80/Saline solution at 10/10/80 (% in volume), respectively. Three animals per dose were treated. Blood samples at 0, 15, 30, 60, 120, 240, 480 and 1440 min after administration were collected for PO arm. Blood samples at 0, 5, 15, 30, 60, 120 and 240 min after administration were collected for IV arm. Plasma was separated from blood by centrifugation for 15 min at 3500 rpm a 4° C., collected in a Eppendorf tube and frozen (−80° C.). Control animals treated with vehicle only were also included in the experimental protocol.
Preparation of Samples, Standard Curve and QC Samples for UPLC-MS Analysis
Samples were thawed in an ice bath and after a short centrifugation transferred (50 μL) into a 96-deepwell plate and added with 150 μL of acetonitrile spiked with 200 nM Warfarin (the Internal Standard, I.S.). After agitation (3 min) the plate was centrifuged at 3000 g for 10 min at 4° C. […]
Compounds plasma levels were monitored on a Xevo TQ UPLC-MS/MS system (Waters, Milford USA), using the calibration curve and the internal standard (Warfarin). […] Plasma levels data were analyzed using PKSolutions excel application (Summit Research Service, USA) to derive the most important pharmacokinetic parameters. […]

SMILES: CNC(=O)c1cccc(-c2cccc(OC(=O)NC3CCCCC3)c2)c1
- AUC PO (10 mg/kg): 90205 ng·min/mL
